Measured values: patent US20050208549A1, “Testing endosymbiont cellular organelles and compounds identifiable therewith” (priority 2000, published 2005)

Columns and labels:
[1] = system: peripheral blood mononuclear cells (PBMCs); assay: NASBA ratio of mitochondrial RNA to chromosome-encoded RNA in cultured PBMCs; format: cell-based, human (healthy blood donor)
Experimental: In Table 1, the primers and probes used in the examples are summarized. Standard NASBA nucleic acid amplification reactions were performed in a 20 μl reaction volume and contained: 40 mM Tris-pH 8.5, 70 mM KCl, 12 mM MgCl2, 5 mM dithiothreitol, 1 mM dNTPs (each), 2 mM rNTPs (each), 0.2 μM primer (each), 0.05 μM molecular beacon, 375 mM sorbitol, 0.105 μg/μl bovine serum albumin, 6.4 units AMV RT, 32 units T7 RNA polymerase, 0.08 units RNAse H and input nucleic acid. The complete mixture, except the enzymes, sorbitol and/or bovine serum albumin was, prior to adding the enzyme mixture, heated to 65° C. for two minutes in order to denature any secondary structure in the RNA and to allow the primers to anneal. After cooling the mixture to 41° C., the enzymes were added. The amplification took place at 41° C. for 90 minutes in a fluorimeter (CytoFluor 2000) and the fluorescent signal was measured every minute (using the filter set 530/25 nm and 485/30 nm). For amplification of DNA target sequences, the 65° C. denaturation step was replaced with a 95° C. denaturation step for two to five minutes.
To achieve quantification, a dilution series of target sequences for a particular primer set was amplified and the time points at which the reactions became positive (the time to positivity, TTP) were plotted against the input amounts of nucleic acid. This way a calibration curve was created that could be used to read TTP values of reactions with unknown amounts of input and deduce the input amount.
Cells (fibroblasts and PBMCs) were cultured under standard conditions in standard media known to persons skilled in the art with the addition of drugs or putative toxic or stimulating compounds as defined in the examples. […] A small aliquot of the isolated nucleic acid was analyzed on an agarose gel and the remainder stored at −80° C. until further analysis. […]

[2] = system: PBMC of patients; assay: Mitochondrial DNA content per PBMC of HIV-1 infected patients on antiviral therapy (duplex NASBA); format: in vivo, human (HIV-1 infected patients); details: for Mitochondrial DNA content in PBMC (per cell), Median / % decrease in mitochondrial DNA content of PBMC: patients
Experimental: Different ratios of mitochondrial and chromosomal DNA targets in plasmids were analyzed in this example: 2×10^3 U1a DNA/8×10^3 Mt DNA, 2×10^3 U1a DNA/2×10^4 MtDNA, 2×10^3 U1a DNA/4×10^4 Mt DNA, 2×10^3 U1a DNA/10^5 Mt DNA, 2×10^3 U1a DNA/2×10^5 Mt DNA, 2×10^3 U1a DNA/4×10^5 Mt DNA, and 2×10^3 U1a DNA/8×10^5 Mt DNA molecules were included. A reaction mix was prepared similar to that of Example 12, except that primers and beacons differed in order to amplify chromosomal and mitochondrial DNA in one tube. The reaction mix (duplex-mix) contained two sets of primers and beacons: SnrpD P1 and SnrpD2 P2 (first primer set, each 0.2 μM), and MtD P1—2 and MtD P2—2 (second primer set, each 0.3 μM) with beacons SnrpD mb—2 (FAM-labeled) and MtD mb—3 (ROX-labeled) (each 0.04 μM). See Table 1 for primer and, probe sequences. Restriction enzyme digestion, amplification, and detection were performed as in Example 12. Filter sets of the fluorimeter (CytoFluor 2000 or EasyQ analyzer) were adapted to simultaneously measure the FAM and the ROX-label (485/20 and 530/25 for FAM; 590/20 and 645/40 for ROX). In a duplex reaction with two competing amplifications, the ratio of the slope of the curves of fluorescence in time is proportional to the ratio of the amount of molecules of each amplified species. The relation between the ratio of the slopes of FAM and ROX signal is linear to the ratio of mitochondrial DNA and chromosomal DNA in the input.
Forty-eight HIV-1 infected patients were randomized for antiviral therapy with either AZT, AZT+ddI, or AZT+ddC. Blood was drawn at week 0, 4, 24, and 48 after the start of therapy. The blood was used to prepare peripheral blood mononuclear cells (PBMC) by Ficoll-Isopaque purification. PBMC were viably frozen in medium plus 5% DMSO and stored in liquid nitrogen until use.
Nucleic acids were extracted from 10^5 PBMC using the Boom method. Nucleic acids equivalent of 1,000 PBMC were used as input for the one-tube real-time duplex-NASBA that measures both mitochondrial and chromosomal DNA as described in Example 17. The result of this assay is expressed as the mitochondrial DNA content per cell (i.e., PBMC) of the patient sample.
The mtDNA content of the PBMC of the patients at start of therapy was compared to the mtDNA content at week 4, 24, and 48 and analyzed for statistically significant changes (see Table 3 and FIGS. 20 and 21).

[3] = system: Fibroblasts; assay: Lactate-pyruvate ratio in fibroblasts cultured with ddC; format: cell-based
Experimental: Fibroblasts were cultured in the presence of the anti-retroviral drug ddC. (30 μM) for four weeks. After that period, the cell culture continued in the presence, but also in the absence, of ddC for another six weeks. During this period of culture, part of the cells were harvested and analyzed for the ratio of lactate-pyruvate using standard methods known by persons skilled in the art.

Compound	change in ratio of mitochondrial RNA to chromosome-encoded RNA ([1]; culture period of five days, 6 μM and 60 μM)	Mitochondrial DNA content in PBMC (per cell), Median ([2]; week 0 (start of therapy))	% decrease in mitochondrial DNA content of PBMC ([2]; week 4 compared to start of therapy) [%]	Mitochondrial DNA content in PBMC (per cell), Median ([2]; week 4 of therapy)	% decrease in mitochondrial DNA content of PBMC ([2]; week 24 compared to start of therapy) [%]	Mitochondrial DNA content in PBMC (per cell), Median ([2]; week 24 of therapy)	% decrease in mitochondrial DNA content of PBMC ([2]; week 48 compared to start of therapy) [%]	Mitochondrial DNA content in PBMC (per cell), Median ([2]; week 48 of therapy)	decline in PBMCs of mitochondrial RNA per cell ([1]; five-day culture period, highest concentration of ddC used, FIG. 10)	culture time after which a significant increase of lactate pyruvate ratio can be observed ([3]; ddC 30 μM)	lactate-pyruvate ratio in continued culture in the absence of ddC ([3]; ddC 30 μM for four weeks, then without ddC)	lactate pyruvate ratio in the presence of ddC ([3]; ddC 30 μM, FIG. 17)	lactate-pyruvate ratio during continued culture in the presence of ddC ([3]; ddC 30 μM, after week four, another six weeks)	change in the mitochondrial DNA content of patients' PBMC under therapy ([2]; human, in vivo)
Cc1cn([C@H]2C[C@H](N=[N+]=[N-])[C@@H](CO)O2)c(=O)[nH]c1=O [AZT]	no measurable change	196	11	157	1	182	5	155						
Nc1ccn([C@H]2CC[C@@H](CO)O2)c(=O)n1 [ddC]									do not clearly show a decline	four	drops to normal levels	increases	remains high	significant decline
